# Measurements as given in patent US10632106B2, “Methods of cancer treatment with 2-(1′H-Indole-3′-carbonyl)-thiazole-4-carboxylic acid methyl ester” (Ariagen, Inc., priority 2009, dated 2020).
# Test system: SW116 (human colon cancer) xenografts
# Assay: SW116 xenograft growth inhibition
# Assay type: in vivo
# Conditions: ITE 100-200 mg/kg i.p. once daily
# Procedure: All the procedures related to animal handling, care, and the treatment in the study were performed following guidelines of KeyGen Biotechn Co., Ltd. (Nanjing, China), a contract research organization we hired, based on the guidance of the Association for Assessment and Accreditation of Laboratory Animal Care (AAALAC). Animals were checked for any effects of tumor growth and drug treatment on normal behavior such as mobility, food and water consumption, body weight gain/loss (bodyweights were measured every two days), eye/hair matting, and any other abnormal effect. Death and observed clinical signs were recorded. Individual animals with a tumor volume exceeding 3,000 mm^3 or animals of a group with a mean tumor volume exceeding 2,000 mm^3 were euthanized. In addition, animals showing signs of severe distress and/or pain or losing the capability of accessing adequate food or water were humanely sacrificed.
# Cell lines HCT116, Siha, MFC were cultured in DMEM medium (high glucose) supplemented with 10% fetal bovine serum (FBS), SW116 and T24 in RPMI-1640 medium with 10% FBS, M14 and A375 in DMEM medium (high glucose) with 10% calf serum (CS), SGC7901 and Ketr-3 in RPMI-1640 medium with 10% CS, and CFPAC-1 in IMDM medium with 10% FBS. All of the cells were cultured, in the presence of 100 U/ml penicillin and 100 μg/ml streptomycin, at 37° C. in an atmosphere of 5% CO2 in air. […] The cells growing in an exponential phase were harvested and counted for tumor inoculation. Cell lines 5180 and U14 were maintained in ascites (peritoneal cavity fluid) of mice and were harvested and counted for tumor inoculation. […]
# Tumor volume was measured every two days in two dimensions using a caliper and the volume was calculated with a formula of: V=0.5 a×b^2, where a and b are the long and short diameter (in mm) of a tumor, respectively. […] The TGD was calculated as: TGD=T−C, where T was the time (in days) required for tumors in a drug treated group to reach a predetermined mean tumor volume and C the time (in days) in the control group to reach the same volume. […]
smiles,measurement,setting,value
"COC(=O)c1csc(C(=O)c2c[nH]c3ccccc23)n1 [ITE, 2-(1′H-indole-3′-carbonyl)-thiazole-4-carboxylic acid methyl ester]",TGD,"TGD at Vol. 1,000",9 days
same,TGI (%),"TGI at day 20, TGI=(1−ΔT/ΔC)×100%",67%
same,Weight Loss,end of therapy relative to beginning,15%
